Source: US20250065017A1, “Fractionating Extracellular Matrix to Modulate Bioactivity and the Host Response” (University of Pittsburgh - Of the Commonwealth System of …, priority 2014, published 2025)

Legend:
THP1 macrophages = assay: PGE2 and PGF2α secretion (ELISA); assay type: cell-based, human; settings: coadministered along with UBM hydrogel
Method: (§1) THP-1 human monocytes were obtained from the American Tissue Culture Collection (ATCC, Manassas, VA) and maintained in RPMI, 10% FBS, 1% penicillin/streptomycin, 2 mM L-glutamine, and 1 mM sodium pyruvate in a humidified atmosphere at 37° C. with 5% CO2. For TNFα, PGE2, PGF2α, IL-1β, and IL-1RA experiments, 500,000 THP-1 cells/well were plated with 320 nM phorbol 12-myristate 13-acetate (PMA) for 24 hours to induce differentiation into macrophages. Adherent macrophages were washed in PBS and placed in fresh media, followed by a 24 hour incubation in fresh media to acquiesce. Human PSCs were isolated from blood vessels in fetal muscle according to the methods outlined by Crisan et al. [Purification and long-term culture of multipotent progenitor cells affiliated with the walls of human blood vessels: myoendothelial cells and pericytes. […]
(§2) Macrophages prepared as described in the Cell Culture section were treated with UBM digest (290 μg/mL) or fractionated components (80 μg/mL soluble, 170 μg/mL structural) for 48 (TNFα, IL-1β and IL-1RA), or 72 (PGE2 and PGF2α) hours. […] Commercially available ELISA kits were used to determine the absolute quantities of TNFα (BD Bioscience, San Jose, CA), PGE2 (Enzo, Farmingdale, NY), PGF2α (Enzo, Farmingdale, NY), IL-1β (BD Bioscience, San Jose, CA), and IL1-RA (R&D Systems, Minneapolis, MN) according to the manufacturer's instructions. […]

THP-1 macrophages = assay: TNFα and IL-1β secretion after treatment (ELISA); assay type: cell-based, human; settings: 48 hours treatment
Method: as §1, §2

Row | Compound | PGE2 secretion on co-incubation with COX2 inhibitor (THP1 macrophages) | production of TNFα and IL-1β above control (THP-1 macrophages)
1 | CS(=O)(=O)Nc1ccc([N+](=O)[O-])cc1OC1CCCCC1 [NS-398] | abrogated PGE2 secretion down to control levels | 
2 | lipopolysaccharide [LPS] |  | 100-1000 fold
